Where “and” joins values, the source holds several entries; their conditions need not be identical. Identical values can stand only once.
How the values were obtained:
BECKER = assay: Colony formation (CFU) assay, BECKER; type: cell-based; conditions: 336 h, CFU ~14 days, wells with DMSO or 300 nM Compound 1, read-out: Chemotherapy nM IC50s
Description: (§1) In vitro experiments were conducted using the colony formation unit (CFU) assay on various cell lines. The CFU assay involved first establishing what cell plating density enabled the development of clearly interspersed colonies on a six-well plate when left to grow for around 14 days. […] At or around day 14 when clearly interspersed colonies were visible in the DMSO-treated wells, the cells were fixed and stained using 0.1% crystal violet in 10% ethanol for 20 minutes at room temperature. The plates were imaged then the amount of crystal violet stain in each well was quantified by extracting the crystal violet into 10% acetic acid and the absorbance measured at 565 nm.
(§2) For certain cell lines, multiple IC50 values were taken, and those are separated by commas. Synergy scores are in parentheticals.

GOTO = assay: Colony formation (CFU) assay, GOTO; type: cell-based; conditions: 336 h, nervous system, CFU ~14 days, wells with DMSO or 300 nM Compound 1, read-out: Chemotherapy nM IC50s
Description: as §1, §2

U251MG = assay: Colony formation (CFU) assay, U251MG; type: cell-based; conditions: Homo sapiens, U-251, 336 h, nervous system, CFU ~14 days, wells with DMSO or 300 nM Compound 1, read-out: Chemotherapy nM IC50s
Description: as §1, §2

[1] = test system: MDA-MB-436 cell line-derived breast xenograft; assay: Anti-tumor activity, MDA-MB-436 cell line-derived breast xenograft model; type: in vivo; conditions: Compound 1 100 mg/kg p.o. once daily 28 days + cisplatin 2 mg/kg i.v. once weekly x4; MDA-MB-436, NOD SCID mice; FIG. 6A
Description: Six to eight week old female NOD SCID mice from Beijing Anikeeper Biotech CO, Ltd were implanted subcutaneously with 1×10^7 MDA-MB-436 cells. When tumors established to a tumor volume of approximately 240 mm^3 mice were randomized into groups of 5 and were assigned into the following groups: control, cisplatin (2 mg/kg), Compound 1 (100 mg/kg) or Compound 1 (100 mg/kg) and cisplatin (2 mg/kg) combination. Cisplatin was administered intravenously via tail vein once weekly for a total of 4 doses. Compound 1 was administered via oral gavage once daily for 28 days. Body weight and tumor volume were measured twice per week. Tumor volume was calculated as mean and standard error of the mean for each treatment group.

[2] = test system: HBCx-8 patient-derived breast xenograft; assay: Anti-tumor activity, HBCx-8 patient-derived breast xenograft model; type: in vivo, Athymic nude mice; conditions: Compound 1 100 mg/kg p.o. once daily 42 days + cisplatin 5 mg/kg i.v. once weekly x3; HBCx-8 PDX, nude mice; FIG. 7A
Description: Six to nine week old female Athymic nude mice from Envigo were anesthetized and a 20 mm^3 tumor fragment placed subcutaneously via incision in the flank. […] Cisplatin was administered intravenously via tail vein once weekly for a total of 3 doses. Compound 1 was administered via oral gavage once daily for 42 days. Body weight and tumor volume were measured twice per week. Tumor volume was calculated as mean and standard error of the mean for each treatment group.

[3] = test system: HBCx-11 patient-derived breast xenograft; assay: Anti-tumor activity, HBCx-11 patient-derived breast xenograft model; type: in vivo, Athymic nude mice; conditions: Compound 1 100 mg/kg p.o. once daily 28 days + cisplatin 3 mg/kg i.v. once weekly x4; HBCx-11 PDX, nude mice; FIG. 8A
Description: Six to nine week old female Athymic nude mice from Envigo were anesthetized and a 20 mm^3 tumor fragment placed subcutaneously via incision in the flank. When tumors established to a tumor volume of between 75 and 196 mm^3 mice were randomized into groups of 3 and were assigned into the following groups: control, Compound 1 (100 mg/kg), cisplatin (3 mg/kg) or Compound 1 (100 mg/kg) and cisplatin (3 mg/kg) combination. Cisplatin was administered intravenously via tail vein once weekly for a total of 4 doses. Compound 1 was administered via oral gavage once daily for 28 days. Body weight and tumor volume were measured twice per week. Tumor volume was calculated as mean and standard error of the mean for each treatment group.

5637 = assay: Colony formation (CFU) assay, 5637; type: cell-based; conditions: 5637, bladder
Description: as §1, §2

647V = assay: Colony formation (CFU) assay, 647V; type: cell-based; conditions: bladder
Description: as §1, §2

A549 = assay: Colony formation (CFU) assay, A549; type: cell-based; conditions: A549, lung
Description: as §1, §2

HBCx8 = assay: Colony formation (CFU) assay, HBCx8; type: cell-based; conditions: HBCx8, breast
Description: as §1, §2

HBCx9 = assay: Colony formation (CFU) assay, HBCx9; type: cell-based; conditions: HBCx9, breast
Description: as §1, §2

HCC1806 = assay: Colony formation (CFU) assay, HCC1806; type: cell-based; conditions: HCC1806, breast; CFU ~14 days; wells with DMSO or 300 nM Compound 1; read-out: Chemotherapy nM IC50s (converted)
Description: as §1, §2

HCT116 = assay: Colony formation (CFU) assay, HCT116; type: cell-based; conditions: HCT116, colon; CFU ~14 days; wells with DMSO or 300 nM Compound 1; read-out: Chemotherapy nM IC50s
Description: as §1, §2

HT1376 = assay: Colony formation (CFU) assay, HT1376; type: cell-based; conditions: HT1376, bladder
Description: as §1, §2

KU1919 = assay: Colony formation (CFU) assay, KU1919; type: cell-based; conditions: KU1919, bladder
Description: as §1, §2

NCIH1650 = assay: Colony formation (CFU) assay, NCIH1650; type: cell-based; conditions: NCIH1650, lung
Description: as §1, §2

NCIH596 = assay: Colony formation (CFU) assay, NCIH596; type: cell-based; conditions: NCIH596, lung
Description: as §1, §2

SUM149PT = assay: Colony formation (CFU) assay, SUM149PT; type: cell-based; conditions: breast
Description: as §1, §2

U2OS = assay: Colony formation (CFU) assay, U2OS; type: cell-based; conditions: bone
Description: as §1, §2

UBLC1 = assay: Colony formation (CFU) assay, UBLC1; type: cell-based; conditions: UBLC1, bladder
Description: as §1, §2

UMUC3 = assay: Colony formation (CFU) assay, UMUC3; type: cell-based; conditions: UMUC3, bladder
Description: as §1, §2

various cell lines = assay: Colony formation (CFU) assay, summary over cell lines of Table 1; type: cell-based; conditions: combination of USP1 inhibitor (Compound 1, 300 nM) and the chemotherapy agent
Description: as §1
In certain cell lines, combinations of the disclosure are synergistic. In some aspects, these combinations are determined to have a Bliss score is about 6, about 7, about 8, about 9, about 10, about 11, about 12, about 13, about 14, about 15, about 16, about 17, about 18, about 19, about 20 or about 25.

[4] = Maximum tolerated dose of Compound 1 cocrystal in combination with cisplatin, non-tumor bearing mice; conditions: non-tumor bearing female Balb/c nude mice; Compound 1 oral gavage once daily 28 days + cisplatin i.v. once a week days 0, 7, 14, 21
Description: The maximum tolerated dose (MTD) of the USP1 inhibitor Compound 1 cocrystal in combination with cisplatin was evaluated in non-tumor bearing Balb/c nude mice. 6-8 week old female Balb/c nude mice from Beijing Anikeeper Biotech Co. Ltd were randomized into groups of 5 for control, cisplatin (4 mg/kg) alone, cisplatin (5 mg/kg) alone, cisplatin (6 mg/kg) alone, Compound 1 (50 mg/kg) and cisplatin (4 mg/kg) combination group, Compound 1 (100 mg/kg) and cisplatin (4 mg/kg) combination group, Compound 1 (300 mg/kg) and cisplatin (4 mg/kg) combination group, Compound 1 (50 mg/kg) and cisplatin (5 mg/kg) combination group, Compound 1 (100 mg/kg) and cisplatin (5 mg/kg) combination group, Compound 1 (300 mg/kg) and cisplatin (5 mg/kg) combination group, Compound 1 (50 mg/kg) and cisplatin (6 mg/kg) combination group, Compound 1 (100 mg/kg) and cisplatin (6 mg/kg) combination group, and Compound 1 (300 mg/kg) and cisplatin (6 mg/kg) combination group. Mice were treated with the relevant dose of Compound 1 via oral gavage once daily for 28 days or relevant dose of cisplatin via intravenous injection once a week on days 0, 7, 14, and 21. […]
Body weights were measured daily. Tolerability was assessed by monitoring body weight and calculating body weight changes as % from body weight on day of treatment start (day 0), as shown in FIG. 1-3. […]

[5] = single dose in Balb/c nude mice; Aston W., et al., BMC Cancer 17:684 (2017); cited from earlier work
[6] = CFU ~14 days, wells with DMSO or 300 nM Compound 1, read-out: Chemotherapy nM IC50s
[7] = chemotherapy agent in combination with 300 nM Compound 1

`Cn1nnc2c(C(N)=O)ncn2c1=O` [Temozol., Temozolomide] showed an IC50 (BECKER) of less than 1 nM, an IC50 (GOTO) of less than 1 nM and an IC50 (U251MG) of less than 1 nM.
In the case of `COc1ncnc(C2CC2)c1-c1ncc2cnn(Cc3ccc(-c4nc(C(F)(F)F)cn4C(C)C)cc3)c2n1` [Compound 1, 6-(4-cyclopropyl-6-methoxypyrimidin-5-yl)-1-(4-(1-isopropyl-4-(trifluoromethyl)-1H-imidazol-2-yl)benzyl)-1H-pyrazolo[3,4-d]pyrimidine], the “anti-tumor activity (tumor volume) of combination versus single agents” value [1] is reported as “more prolonged anti-tumor activity”, the “anti-tumor activity (tumor volume) of combination versus single agents” value [2] is reported as “more prolonged anti-tumor activity” and the “anti-tumor activity (tumor volume) of combination versus single agents” value [3] is reported as “superior and more prolonged anti-tumor activity”.
In the case of `N.N.[Cl][Pt][Cl]` [Cis., cisplatin], the IC50 5637; [6] is reported as 598 nM, the synergy score 5637; [7] is reported as “(12)” and the IC50 (647V; [6]) is reported as 1780 nM. The synergy score (647V; [7]) was 0, the IC50 (A549; [6]) was greater than 316 nM and the synergy score (A549; [7]) was “(11)”. For the same molecule, the IC50 (HBCx8; [6]) was 142 nM, the synergy score (HBCx8; [7]) was “(1)” and the IC50 (HBCx9; [6]) was 473 nM. For the same molecule, the synergy score (HBCx9; [7]) was “(−1)”, the IC50 (HCC1806) was 97 nM and 130 nM and the IC50 (HCT116) was 1260 nM and 895 nM. For the same molecule, the IC50 (HT1376; [6]) was 734 nM, the synergy score (HT1376; [7]) was “(10)” and the IC50 (KU1919; [6]) was 894 nM. The synergy score (KU1919; [7]) was “(1)”, the IC50 (NCIH1650; [6]) was greater than 1000 nM and the synergy score (NCIH1650; [7]) was “(−1)”. For the same molecule, the IC50 (NCIH596; [6]) was 129 nM, the synergy score (NCIH596; [7]) was “(0)” and the IC50 (SUM149PT; [6]) was greater than 316 nM. The synergy score (SUM149PT; [7]) was “(10)”, the IC50 (U2OS; [6]) was greater than 316 nM and the synergy score (U2OS; [7]) was “(3)”. For the same molecule, the IC50 (UBLC1; [6]) was 308 nM, the synergy score (UBLC1; [7]) was “(−2)” and the IC50 (UMUC3; [6]) was 212 nM. The synergy score (UMUC3; [7]) was “(1)”, the “synergy of combination with USP1 inhibitor” value (various cell lines) was “synergy was detected” and the “combination MTD” value [4] was 6 mg/kg. For the same molecule, the “reported MTD” value [5] was 6 mg/kg.

Reference: patent publication US20250213574A1, “THERAPEUTIC COMBINATIONS COMPRISING UBIQUITIN- SPECIFIC-PROCESSING PROTEASE 1 (USP1) INHIBITORS AND CHEMOTHERAPY AGENTS” (KSQ Therapeutics, Inc., priority 2022, published 2025)
